Reference: patent publication US9174996B2, “Protein kinase inhibitors” (Astar Biotech LLC, priority 2012, dated 2015)

Tests used:
[1] = tested on: K562 cells; test: Cell death assay, Experiment 1 (live cells counted by trypan blue); type: cell-based; details: Homo sapiens, 100 nM, 48 hours, read-out: % live cells (vs control)
[2] = target: Ba/F3 cells expressing BCR-ABL T315I (Homo sapiens, UniProt P00519, T315I, cells depend on it); test: MTT cell viability assay, Experiment 3; type: cell-based, murine; details: Mean ± S.E.M, two independent experiments, read-out: IC50 cell viability, Ba/F3 cells T315I BCR-ABL
From the text: (§1) This study evaluated the effect of the pure optical isomers on human leukemia cell viability in vitro. […] Two BCR-ABL-positive human leukemia cell lines, K562 and KU812, were used in this study. Besides, Ba/F3 cell transfectants expressing native or T315I BCR-ABL, whose viability is dependent on ectopically expressed BCR-ABL, were also used in this work. Ba/F3 cells expressing BCR-ABL^T315I were used for testing the efficiency of tested compounds on point mutation BCR-ABL^T315I, which cause drug resistance to Imatinib (Gleevec). U937 and JURKAT, two BCR-ABL-negative human leukemia cell lines, were employed to test the selectivity of tested compounds.
(§2) Cells were seeded in 24-well plates, and treated with drugs at corresponding concentrations. Cell viability was measured using a MTT (3-(4,5-dimethylthiazol-2-yl)-2,5-diphenyltetrazolium bromide)-based colorimetric assay with a 96-well plate reader. IC50 values were calculated using the mean of two independent experiments.

[3] = target: Ba/F3 cells expressing native BCR-ABL (Homo sapiens, UniProt P00519); test: MTT cell viability assay, Experiment 3; type: cell-based, murine; details: Mean ± S.E.M, two independent experiments, read-out: IC50 cell viability, Ba/F3 cells Native BCR-ABL
From the text: as §1, §2

[4] = tested on: JURKAT; test: MTT cell viability assay, Experiment 3; type: cell-based; details: Homo sapiens, MTT, Mean ± S.E.M, two independent experiments, read-out: IC50 cell viability, Non-CML leukemia cells JURKAT
From the text: (§3) This study evaluated the effect of the pure optical isomers on human leukemia cell viability in vitro. Ponatinib was used as the positive control. Two BCR-ABL-positive human leukemia cell lines, K562 and KU812, were used in this study. Besides, Ba/F3 cell transfectants expressing native or T315I BCR-ABL, whose viability is dependent on ectopically expressed BCR-ABL, were also used in this work. Ba/F3 cells expressing BCR-ABL^T315I were used for testing the efficiency of tested compounds on point mutation BCR-ABL^T315I, which cause drug resistance to Imatinib (Gleevec). U937 and JURKAT, two BCR-ABL-negative human leukemia cell lines, were employed to test the selectivity of tested compounds.
as §2

[5] = tested on: K562; test: MTT cell viability assay, Experiment 3; type: cell-based; details: Homo sapiens, K562; MTT, Mean ± S.E.M, two independent experiments; read-out: IC50 cell viability, CML leukemia cells K562
From the text: as §3, §2

[6] = tested on: KU812; test: MTT cell viability assay, Experiment 3; type: cell-based; details: Homo sapiens, KU812; MTT, Mean ± S.E.M, two independent experiments; read-out: IC50 cell viability, CML leukemia cells KU812
From the text: as §3, §2

[7] = tested on: U937; test: MTT cell viability assay, Experiment 3; type: cell-based; details: Homo sapiens, U-937; MTT, Mean ± S.E.M, two independent experiments; read-out: IC50 cell viability, Non-CML leukemia cells U937
From the text: as §3, §2

Compound | melting point | viability at 0.1 µM [1] | also measured
Cc1ccc(C(=O)Nc2ccc(CN3CCN(C)CC3)c(C(F)(F)F)c2)cc1C#Cc1cnc2cccnn12 [AP-24534, reference compound] |  | 10.1% | 
CN1CCN([C@@H]2CC(F)(F)c3cc(NC(=O)c4ccc(F)c(C#Cc5cnc6cccnn56)c4)ccc32)CC1 (single isomer, unassigned) [39-(R)] |  |  | GI50 [2]: > 0.1 µM; GI50 [3]: 0.0476 ± 0.0045 µM; IC50 [4]: > 1 µM; IC50 [5]: 0.0064 ± 0.0013 µM; IC50 [6]: 0.0036 ± 0.0008 µM; IC50 [7]: > 1 µM
CN1CCN(Cc2ccc(NC(=O)c3ccc(Cl)c(C#Cc4ccc(NC5CCC5)nn4)c3)cc2C(F)(F)F)CC1 [Compound 16, 4-Chloro-3-(2-(6-(cyclobutylamino)pyridazin-3-yl)ethynyl)-N-(4-((4-methylpiperazin-1-yl)methyl)-3-(trifluoromethyl)phenyl)benzamide] | 132 to 133 °C | 8.46% | 
Cc1ccc(C(=O)Nc2ccc3c(c2)C(F)(F)C[C@@H]3N2CCN(C)CC2)cc1C#Cc1cnc(NC2CC2)nc1 [37-(S), (S)-3-(2-(2-(Cyclopropylamino)pyrimidin-5-yl)ethynyl)-N-(1,1-difluoro-2,3-dihydro-3-(4-methylpiperazin-1-yl)-1H-indan-6-yl)-4-methylbenzamide] |  |  | GI50 [2]: 0.0124 ± 0.0004 µM; GI50 [3]: 0.0035 ± 0.0009 µM; IC50 [4]: 0.28 ± 0.02 µM; IC50 [5]: 0.0006 ± 0.0001 µM; IC50 [6]: 0.0002 ± 0.0001 µM; IC50 [7]: 0.165 ± 0.015 µM
Cc1ccc(-c2nc3ccc(CN4CCN(C)CC4)cc3[nH]2)cc1C#Cc1cnc(NC2CC2)nc1 [Compound 5, N-Cyclopropyl-5-(2-(2-methyl-5-(6-((4-methylpiperazin-1-yl)methyl)-1H-benzo[d]imidazol-2-yl)phenyl)ethynyl)pyrimidin-2-amine] | 136 to 137 °C | 10.8% | 
CN1CCN([C@@H]2CC(F)(F)c3cc(NC(=O)c4ccc(Cl)c(C#Cc5cnc6cccnn56)c4)ccc32)CC1 (single isomer, unassigned) [38-(R)] |  |  | GI50 [2]: > 0.1 µM; GI50 [3]: 0.0782 ± 0.0023 µM; IC50 [4]: > 1 µM; IC50 [5]: 0.0249 ± 0.0099 µM; IC50 [6]: 0.0119 ± 0.0003 µM; IC50 [7]: > 1 µM
Cc1ccc(C(=O)Nc2ccc(CN3CCN(C)CC3)c(C(F)(F)F)c2)cc1C#Cc1ccc(NC(C)C)nn1 [Compound 14, 3-(2-(6-(Isopropylamino)pyridazin-3-yl)ethynyl)-4-methyl-N-(4-((4-methylpiperazin-1-yl)methyl)-3-(trifluoromethyl)phenyl)benzamide] | 67 to 68 °C | 8.37% | 
CN1CCN(Cc2ccc(NC(=O)c3ccc(Cl)c(C#Cc4ccc(NC5CC5)nn4)c3)cc2C(F)(F)F)CC1 [Compound 15, 4-Chloro-3-(2-(6-(cyclopropylamino)pyridazin-3-yl)ethynyl)-N-(4-((4-methylpiperazin-1-yl)methyl)-3-(trifluoromethyl)phenyl)benzamide] | 133 to 134 °C | 17% | 
CN1CCN(Cc2ccc3nc(-c4ccc(Cl)c(C#Cc5cnc(NC6CC6)nc5)c4)[nH]c3c2)CC1 [Compound 10, 5-(2-(2-Chloro-5-(6-((4-methylpiperazin-1-yl)methyl)-1H-benzo[d]imidazol-2-yl)phenyl)ethynyl)-N-cyclopropylpyrimidin-2-amine] | 160 to 162 °C | 11% | 
CC(C)Nc1ccc(C#Cc2cc(C(=O)Nc3ccc(CN4CCN(C)CC4)c(C(F)(F)F)c3)ccc2Cl)nn1 [Compound 17] | 133 to 134 °C | 18.3% | 
CN1CCN(Cc2ccc3nc(-c4ccc(Cl)c(C#Cc5cnc6cccnn56)c4)[nH]c3c2)CC1 [Compound 6, 3-(2-(2-Chloro-5-(6-((4-methylpiperazin-1-yl)methyl)-1H-benzo[d]imidazol-2-yl)phenyl)ethynyl)imidazo[1,2-b]pyridazine] | 156 to 157 °C | 10.1% | 

Continued, in another order:

melting point | Compound | viability at 0.1 µM [1] | also measured
153 to 155 °C | Cc1cn(-c2ccc(NC(=O)c3ccc(Cl)c(C#Cc4cnc5cccnn45)c3)cc2C(F)(F)F)cn1 [Compound 31, 4-Chloro-3-(2-(imidazo[1,2-b]pyridazin-3-yl)ethynyl)-N-(4-(4-methyl-1H-imidazol-1-yl)-3-(trifluoromethyl)phenyl)benzamide] | 14.4% | 
213 to 215 °C | Cc1cn(-c2cc(NC(=O)c3ccc(Cl)c(C#Cc4ccc(NC5CC5)nn4)c3)cc(C(F)(F)F)c2)cn1 [Compound 26, 4-Chloro-3-(2-(6-(cyclopropylamino)pyridazin-3-yl)ethynyl)-N-(3-(4-methyl-1H-imidazol-1-yl)-5-(trifluoromethyl)phenyl)benzamide] | 18.3% | 
153 to 154 °C | Cc1cn(-c2cc(NC(=O)c3ccc(Cl)c(C#Cc4cnc5cccnn45)c3)cc(C(F)(F)F)c2)cn1 [Compound 32, 4-Chloro-3-(2-(imidazo[1,2-b]pyridazin-3-yl)ethynyl)-N-(3-(4-methyl-1H-imidazol-1-yl)-5-(trifluoromethyl)phenyl)benzamide] | 9.57% | 
223 to 225 °C | Cc1cn(-c2cc(NC(=O)c3ccc(C)c(C#Cc4ccc(NC5CCC5)nn4)c3)cc(C(F)(F)F)c2)cn1 [Compound 24, 3-(2-(6-(Cyclobutylamino)pyridazin-3-yl)ethynyl)-4-methyl-N-(3-(4-methyl-1H-imidazol-1-yl)-5-(trifluoromethyl)phenyl)benzamide] | 16.4% | 
163 to 165 °C | Cc1cn(-c2cc(NC(=O)c3ccc(Cl)c(C#Cc4cnc(NC5CC5)nc4)c3)cc(C(F)(F)F)c2)cn1 [Compound 33, 4-Chloro-3-(2-(2-(cyclopropylamino)pyrimidin-5-yl)ethynyl)-N-(3-(4-methyl-1H-imidazol-1-yl)-5-(trifluoromethyl)phenyl)benzamide] | 7.97% | 
141 to 143 °C | Cc1cn(-c2ccc(NC(=O)c3ccc(Cl)c(C#Cc4cnc(NC5CC5)nc4)c3)cc2C(F)(F)F)cn1 [Compound 29, 4-Chloro-3-(2-(2-(cyclopropylamino)pyrimidin-5-yl)ethynyl)-N-(4-(4-methyl-1H-imidazol-1-yl)-3-(trifluoromethyl)phenyl)benzamide] | 5.87% | 
83 to 85 °C | CN1CCN(Cc2ccc(NC(=O)N3CCC(C#Cc4cnc5cccnn45)C3)cc2C(F)(F)F)CC1 (centres unmarked) [Compound 35, 3-(2-(Imidazo[1,2-b]pyridazin-3-yl)ethynyl)pyrrolidine-N-(4-((4-methylpiperazin-1-yl)methyl)-3-(trifluoromethyl)phenyl)-1-carboxamide] | 11.3% | 
153 to 155 °C | Cc1cn(-c2ccc(NC(=O)c3ccc(Cl)c(C#Cc4ccc(NC5CCC5)nn4)c3)cc2C(F)(F)F)cn1 [Compound 21, 4-Chloro-3-(2-(6-(cyclobutylamino)pyridazin-3-yl)ethynyl)-N-(4-(4-methyl-1H-imidazol-1-yl)-3-(trifluoromethyl)phenyl)benzamide] |  | 
131 to 133 °C | Cc1cn(-c2ccc(NC(=O)c3ccc(C)c(C#Cc4cnc(NC5CC5)nc4)c3)cc2C(F)(F)F)cn1 [Compound 28, 3-(2-(2-(Cyclopropylamino)pyrimidin-5-yl)ethynyl)-4-methyl-N-(4-(4-methyl-1H-imidazol-1-yl)-3-(trifluoromethyl)phenyl)benzamide] | 12.7% | 
141 to 143 °C | Cc1cn(-c2ccc(NC(=O)c3ccc(C)c(C#Cc4ccc(NC(C)C)nn4)c3)cc2C(F)(F)F)cn1 [Compound 19, 3-(2-(6-(Isopropylamino)pyridazin-3-yl)ethynyl)-4-methyl-N-(4-(4-methyl-1H-imidazol-1-yl)-3-(trifluoromethyl)phenyl)benzamide] |  | 
65 to 70 °C | CN1CCN(Cc2ccc(NC(=O)N3CCCC(C#Cc4cnc5cccnn45)C3)cc2C(F)(F)F)CC1 (centres unmarked) [Compound 34, 3-(2-(Imidazo[1,2-b]pyridazin-3-yl)ethynyl)piperidine-N-(4-((4-methylpiperazin-1-yl)methyl)-3-(trifluoromethyl)phenyl)-1-carboxamide] | 12% | 
